According to publication PMC7318034, “Safety, Pharmacokinetics, and Drug-Drug Interaction Potential of Intravenous Durlobactam, a β-Lactamase Inhibitor, in Healthy Subjects” (Antimicrobial Agents and Chemotherapy, 2020):
Where two headings read alike, the source gives them in different places.

How the values were obtained:
[1] = Part B multiple-ascending-dose plasma PK in healthy subjects; format: in vivo, human; conditions: for Cmax / Tmax / AUC / clearance / half-life / Vd: human, plasma, iv; for AUC: read-out: AUC0–tau; for Vd: read-out: Vss
Description: This was a 4-part, double-blind, placebo-controlled study (15 cohorts) of DUR administered as a 3-h i.v. infusion (except for cohort 4, in which a 2-h i.v. infusion was evaluated) (see Table S5 in the supplemental material).
(§1) The blank control matrix was made up of human plasma (BioreclamationIVT) diluted 1:1 with SigmaFast (reconstituted protease inhibitor cocktail tablet [product S8820; Sigma-Aldrich, St. Louis, MO] in 10 ml of water) for preparation of calibration standards and QC samples. […] A 100-μl aliquot of the supernatant was transferred to 96-well plates. Samples were diluted further with 400 μl of water, and 5 μl of sample was injected into the LC-MS/MS system for analysis. […] The LLOQ for all analytes was 5 ng/ml.
(§2) AUC was calculated using the log-linear trapezoidal rule.
(§3) Pharmacokinetic parameters were summarized at each assessment time point using the mean ± standard deviation (SD), the percent coefficient of variation (CV), median, minimum, and maximum. Single-ascending-dose study data were assessed for dose proportionality using Cmax and AUC, and accumulation ratios was determined using repeat-dose cohorts. […] Noncompartmental analysis of PK parameters was performed using Phoenix WinNonlin (v6.4) software to determine PK parameters.

[2] = clinical; conditions: human, in vivo
Description: as §1, §2, §3

[3] = Safety and tolerability (adverse events, laboratory values, vital signs, ECG) in healthy subjects; format: in vivo, human
Description: A routine physical examination, determination of vital signs (supine blood pressure, heart rate, respiratory rate, temperature), a 12-lead electrocardiogram (ECG), and clinical laboratory testing (serum chemistry, hematology, urinalysis) were performed at screening, at intervals during the study, and at the 14-day follow-up.
The intent-to-treat (ITT) population included all randomized subjects. The safety population was all randomized subjects who received any study drug.

[4] = biological target: T1, renal transporter OAT1 (Homo sapiens, UniProt Q4U2R8); test: In vitro assessment of transporter interactions; format: in vitro ADME; conditions: data not published
T1 sequence (Q4U2R8 1-563): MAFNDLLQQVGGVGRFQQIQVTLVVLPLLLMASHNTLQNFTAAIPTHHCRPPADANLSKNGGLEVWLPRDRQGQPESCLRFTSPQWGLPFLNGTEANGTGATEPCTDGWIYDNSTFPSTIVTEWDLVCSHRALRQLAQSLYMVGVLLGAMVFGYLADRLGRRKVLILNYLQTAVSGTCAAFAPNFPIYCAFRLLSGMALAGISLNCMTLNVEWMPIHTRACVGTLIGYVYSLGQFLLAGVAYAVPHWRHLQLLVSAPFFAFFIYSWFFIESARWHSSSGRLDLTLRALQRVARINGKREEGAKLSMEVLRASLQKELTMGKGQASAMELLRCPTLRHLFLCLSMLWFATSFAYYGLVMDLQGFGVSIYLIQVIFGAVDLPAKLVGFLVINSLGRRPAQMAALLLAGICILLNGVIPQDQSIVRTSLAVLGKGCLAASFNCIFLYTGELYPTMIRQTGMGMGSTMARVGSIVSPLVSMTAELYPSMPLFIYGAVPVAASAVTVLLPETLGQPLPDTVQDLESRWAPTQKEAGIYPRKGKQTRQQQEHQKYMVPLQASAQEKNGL

[5] = 0.25 g, part B cohort 9, 0.25 g q6h 3-h i.v. infusion, day 1
[6] = 0.25 g, part B cohort 9, 0.25 g q6h 3-h i.v. infusion, day 8
[7] = 0.5 g, part B cohort 10 (4 subjects), 0.5 g q6h 3-h i.v. infusion, day 1
[8] = 0.5 g, part B cohort 10 (4 subjects), 0.5 g q6h 3-h i.v. infusion, day 8
[9] = 1 g, part B cohort 11 (5 subjects), 1.0 g q6h 3-h i.v. infusion, day 1
[10] = 1 g, part B cohort 11 (5 subjects), 1.0 g q6h 3-h i.v. infusion, day 8
[11] = 2 g, part B cohort 12, 2.0 g q6h 3-h i.v. infusion, day 1
[12] = 2 g, part B cohort 12, 2.0 g q6h 3-h i.v. infusion, day 8
[13] = part B cohort 9, 0.25 g q6h 3-h i.v. infusion, day 8
[14] = part B cohort 10 (4 subjects), 0.5 g q6h 3-h i.v. infusion, day 8
[15] = part B cohort 11 (5 subjects), 1.0 g q6h 3-h i.v. infusion, day 8
[16] = part B cohort 12, 2.0 g q6h 3-h i.v. infusion, day 8
[17] = all subjects receiving the treatment

## CC1=C[C@@H]2CN(C(=O)N2OS(=O)(=O)O)[C@@H]1C(N)=O [DUR, Durlobactam]
[1]; [5]
  Cmax: 6900 ± 1400 ng/mL
  AUC: 23100 ± 4900 ng·h/mL
[1]; 0.25 g, part B cohort 9, 0.25 g q6h 3-h i.v. infusion, day 1, median
  Tmax: 3 h
[1]; [6]
  Cmax: 7500 ± 1300 ng/mL
  AUC: 26200 ± 5200 ng·h/mL
[1]; 0.25 g, part B cohort 9, 0.25 g q6h 3-h i.v. infusion, day 8, median
  Tmax: 2.5 h
[1]; [7]
  Cmax: 14900 ± 2200 ng/mL
  AUC: 50300 ± 9000 ng·h/mL
[1]; 0.5 g, part B cohort 10 (4 subjects), 0.5 g q6h 3-h i.v. infusion, day 1, median
  Tmax: 3 h
[1]; [8]
  Cmax: 14800 ± 1100 ng/mL
  AUC: 53400 ± 4800 ng·h/mL
[1]; 0.5 g, part B cohort 10 (4 subjects), 0.5 g q6h 3-h i.v. infusion, day 8, median
  Tmax: 3 h
[1]; [9]
  Cmax: 26900 ± 13100 ng/mL
  AUC: 79800 ± 35900 ng·h/mL
[1]; 1 g, part B cohort 11 (5 subjects), 1.0 g q6h 3-h i.v. infusion, day 1, median
  Tmax: 2.5 h
[1]; [10]
  Cmax: 33400 ± 6000 ng/mL
  AUC: 109000 ± 13900 ng·h/mL
[1]; 1 g, part B cohort 11 (5 subjects), 1.0 g q6h 3-h i.v. infusion, day 8, median
  Tmax: 3 h
[1]; [11]
  Cmax: 51900 ± 8000 ng/mL
  AUC: 179000 ± 29900 ng·h/mL
[1]; 2 g, part B cohort 12, 2.0 g q6h 3-h i.v. infusion, day 1, median
  Tmax: 3 h
[1]; [12]
  Cmax: 53300 ± 7800 ng/mL
  AUC: 193000 ± 31200 ng·h/mL
[1]; 2 g, part B cohort 12, 2.0 g q6h 3-h i.v. infusion, day 8, median
  Tmax: 3 h
[1]; [13]
  clearance: 163 mL/min
  half-life: 1.9 ± 0.4 h
  Vd: 18.5 ± 2.9 L
  Accum. index: 1.1 ± 0.07
[1]; [14]
  clearance: 157 mL/min
  half-life: 2.6 ± 0.1 h
  Vd: 18.1 ± 1.8 L
  Accum. index: 1.3 ± 0.01
[1]; [15]
  clearance: 155 mL/min
  half-life: 3.5 ± 0.9 h
  Vd: 17.2 ± 2 L
  Accum. index: 1.5 ± 0.18
[1]; [16]
  clearance: 177 mL/min
  half-life: 10.1 ± 2.9 h
  Vd: 21.8 ± 2 L
  Accum. index: 3.0 ± 0.69
[2]
  AUC0–24: 104400 ± 6600 ng·h/mL
  CL: 9.6 ± 0.6 L/h
  Cmax: 26900 ± 3600 ng/mL
  Vss: 17.6 ± 2.0 L
[2]; AUC0–24
  AUC(0-t): 106000 ± 31500 ng·h/mL
[2]; CL
  clearance: 165 mL/min
[2]; Cmax
  Cmax: 30000 ± 9200 ng/mL
[2]; Vss
  Vd: 15.9 ± 2.6 L
[2]; t1/2
  half-life: 1.8 ± 0.4 h
[3]; DUR group, all subjects
  drug-related AE: catheter site phlebitis: 5.3%
  drug-related AE: headache: 10.6%
  treatment-emergent AE: catheter site phlebitis: 8.5%
  treatment-emergent AE: headache: 13.8%
[3]; [17]
  Drug-related AE: Abdominal pain: 0 No. (%) of subjects
  Drug-related AE: Dizziness: 4 (4.3) No. (%) of subjects
  Drug-related AE: Dysgeusia: 2 (2.1) No. (%) of subjects
  Drug-related AE: Nasal congestion: 2 (2.1) No. (%) of subjects
  Drug-related AE: Nausea: 2 (2.1) No. (%) of subjects
  Drug-related AE: Pain in extremity: 1 (1.1) No. (%) of subjects
  Drug-related AE: Phlebitis: 2 (2.1) No. (%) of subjects
  Drug-related AE: Polydipsia: 0 No. (%) of subjects
  Drug-related AE: Pruritus: 2 (2.1) No. (%) of subjects
  Drug-related AE: Somnolence: 1 (1.1) No. (%) of subjects
  Drug-related AE: Upper respiratory infection: 1 (1.1) No. (%) of subjects
  Drug-related AE: Vulvovaginal candidiasis: 2 (2.1) No. (%) of subjects
  drug-related AE: catheter site phlebitis: 5 (5.3) No. (%) of subjects
  drug-related AE: headache: 10 (10.6) No. (%) of subjects
[3]; alone or with SUL and/or IMI-CIL
  overall safety and tolerability: generally safe and well tolerated
[3]; any subject
  changes in clinical laboratory values, vital signs, or ECG findings: No clinically significant changes
[4]
  substrate of renal transporter OAT1: affinity of the substrate for the renal transporter OAT1
